# From US11046716B2, “Beta-lactamase inhibitors” (priority 2015, dated 2021)
# Columns and labels:
# SHV-5 = target: T1, SHV-5 (Klebsiella pneumoniae, UniProt P0A3M1); experiment: β-lactamase enzyme inhibition assay, SHV-5 (cefotaxime substrate); assay type: biochemical
# T1 construct: made in house; host or cells: E. coli BL21(DE3)
# Summary of the method: (§1)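 Read-out is the rate of β-lactam ring hydrolysis monitored by absorbance: 300 nm for imipenem with KPC-2 and 260 nm for cefotaxime with SHV-5. Recombinant native enzymes were first incubated with compound at 37 °C for 15 min. The IC50 is the inhibitor concentration that halves the initial hydrolysis rate.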
# KPC-2 = target: T2, KPC-2 (Klebsiella pneumoniae, UniProt Q9F663); experiment: β-lactamase enzyme inhibition assay, KPC-2 (imipenem substrate); assay type: biochemical; conditions: Class A; imipenem substrate, 300 nm; read-out: KPC-2
# T2 construct: made in house; host or cells: E. coli BL21(DE3)
# Summary of the method: as §1
# VIM-2 = target: T3, VIM-2 (Escherichia coli, UniProt Q5U7L7); experiment: β-lactamase enzyme inhibition assay, VIM-2 (nitrocefin substrate); assay type: biochemical; conditions: Class B; nitrocefin substrate, 486 nm; read-out: VIM-2
# T3 construct: made in house; host or cells: E. coli BL21(DE3)
# Summary of the method: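 Nitrocefin hydrolysis, read at 486 nm over 10 min, served as the measure of VIM-2 activity. The enzyme had been incubated with compound for 15 min at 37 °C before 100 μM substrate was added, and IC50 values were fitted from percent inhibition of the initial rate.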
# AmpC = target: T4, AmpC (Enterobacter cloacae, UniProt P05364); experiment: β-lactamase enzyme inhibition assay, p99 AmpC (nitrocefin substrate); assay type: biochemical
# T4 construct: made in house; host or cells: E. coli BL21(DE3)
# Summary of the method: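 Read-out is the rate of β-lactam ring hydrolysis monitored by absorbance. Recombinant native enzymes were first incubated with compound at 37 °C for 15 min. The IC50 is the inhibitor concentration that halves the initial hydrolysis rate.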
# OXA-48 = OXA-48 (UniProt Q6XEC0); experiment: β-lactamase enzyme inhibition assay, Class D oxacillinase; assay type: biochemical; conditions: read-out: OXA-48
# [1] = tested on: E. coli expressing the Class A Extended Spectrum Beta-Lactamase (ESBL) CTX-M-15; experiment: Broth microdilution MIC assay with ceftazidime, E. coli CTX-M-15; assay type: cell-based; conditions: Fixed CAZ (ceftazidime) 4 μg/mL; E. coli ESBL4 CTX-M-15
# Summary of the method: (§2)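 Visual MIC readout of the test compound after 16-20 hours at 37° C, measured in the presence of a constant 4 μg/ml β-lactam. Compound concentrations spanned 16 to 0.125 μg/mL in 2-fold steps in cation-adjusted Mueller Hinton broth.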
# [2] = tested on: E. cloacae expressing the Class C P99; experiment: Broth microdilution MIC assay with ceftazidime, E. cloacae P99; assay type: cell-based; conditions: Fixed CAZ (ceftazidime) 4 μg/mL; E. cl. 144200 p99 AmpC
# Summary of the method: as §2
# [3] = tested on: K. pneumoniae expressing the Class A carbapenemase KPC-2; experiment: Broth microdilution MIC assay with meropenem, K. pneumoniae KPC-2; assay type: cell-based; conditions: Fixed Mero (meropenem) 4 μg/mL; K. p. 156319 KPC-3
# Summary of the method: as §2
# [4] = tested on: P. aeruginosa expressing the Class B carbapenemase VIM-2; experiment: Broth microdilution MIC assay with meropenem, P. aeruginosa VIM-2; assay type: cell-based; conditions: Fixed Mero (meropenem) 4 μg/mL; P. aerug. 2775 VIM-2
# Summary of the method: as §2
# [5] = tested on: K. pneumoniae expressing the class A carbapenemase KPC-2 and the class B carbapenemase VIM-4; experiment: Broth microdilution MIC assay with meropenem, K. pneumoniae KPC-2 and VIM-4; assay type: cell-based; conditions: Fixed Mero (meropenem) 4 μg/mL; K. p. A-1797 KPC-2 VIM-4
# Summary of the method: as §2
# [6] = tested on: K. pneumoniae producing the Class D carbapenemase OXA-48; experiment: Broth microdilution MIC assay with meropenem, K. pneumoniae OXA-48; assay type: cell-based; conditions: Fixed Mero (meropenem) 4 μg/mL; K. p. 11978 OXA-48
# Summary of the method: as §2
# T4 sequence (P05364 21-381): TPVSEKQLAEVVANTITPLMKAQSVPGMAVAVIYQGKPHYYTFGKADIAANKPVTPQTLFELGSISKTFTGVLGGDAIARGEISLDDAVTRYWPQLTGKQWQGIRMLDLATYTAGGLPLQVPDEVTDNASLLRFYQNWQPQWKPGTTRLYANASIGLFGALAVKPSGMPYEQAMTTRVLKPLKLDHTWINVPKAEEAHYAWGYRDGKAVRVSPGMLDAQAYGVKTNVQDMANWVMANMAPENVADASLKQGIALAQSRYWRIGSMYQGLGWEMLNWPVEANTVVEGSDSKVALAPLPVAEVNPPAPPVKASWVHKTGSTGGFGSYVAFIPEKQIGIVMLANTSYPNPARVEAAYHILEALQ
# T1 sequence (P0A3M1 22-286): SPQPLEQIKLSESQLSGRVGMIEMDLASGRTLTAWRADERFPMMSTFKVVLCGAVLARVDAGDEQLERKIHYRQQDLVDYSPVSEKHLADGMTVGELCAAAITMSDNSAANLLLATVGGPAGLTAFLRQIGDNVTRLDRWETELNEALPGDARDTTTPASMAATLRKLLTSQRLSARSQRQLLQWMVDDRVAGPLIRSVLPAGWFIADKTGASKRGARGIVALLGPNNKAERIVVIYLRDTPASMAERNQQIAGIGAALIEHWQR
# T2 sequence (Q9F663 25-293, looked up): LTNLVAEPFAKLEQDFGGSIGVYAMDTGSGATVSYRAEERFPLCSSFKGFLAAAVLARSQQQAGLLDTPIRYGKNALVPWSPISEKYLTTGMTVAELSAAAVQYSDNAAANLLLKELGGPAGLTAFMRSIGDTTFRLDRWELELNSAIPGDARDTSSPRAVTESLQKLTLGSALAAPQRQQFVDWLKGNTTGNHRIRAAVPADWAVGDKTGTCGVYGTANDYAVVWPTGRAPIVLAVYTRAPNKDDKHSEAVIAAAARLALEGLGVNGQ
Compound,IC50 (SHV-5),IC50 (KPC-2),IC50 (VIM-2),IC50 (AmpC),IC50 (OXA-48),MIC (μg/mL) of Exemplary Compounds in presence of fixed β-lactams: E. coli ESBL4 CTX-M-15 [1],MIC (μg/mL) of Exemplary Compounds in presence of fixed β-lactams: E. cl. 144200 p99 AmpC [2],MIC (μg/mL) of Exemplary Compounds in presence of fixed β-lactams: K. p. 156319 KPC-3 [3],MIC (μg/mL) of Exemplary Compounds in presence of fixed β-lactams: P. aerug. 2775 VIM-2 [4],MIC (μg/mL) of Exemplary Compounds in presence of fixed β-lactams: K. p. A-1797 KPC-2 VIM-4 [5],MIC (μg/mL) of Exemplary Compounds in presence of fixed β-lactams: K. p. 11978 OXA-48 [6]
"N#Cc1ncn(CC(=O)N[C@H]2Cc3cccc(C(=O)O)c3OB2O)n1 [Example 25, (R)-3-(2-(3-cyano-1H-1,2,4-triazol-1-yl)acetamido)-2-hydroxy-3,4-dihydro-2H-benzo[e][1,2]oxaborinine-8-carboxylic acid]",< 100 nM,< 100 nM,100 to 1000 nM,< 100 nM,100 to 1000 nM,C (C represents an MIC of <1 μg/mL),C (C represents an MIC of <1 μg/mL),B (B represents an MIC between 1 and 16 μg/mL inclusive),B (B represents an MIC between 1 and 16 μg/mL inclusive),A (A represents an MIC>16 μg/mL),B (B represents an MIC between 1 and 16 μg/mL inclusive)
"CNCc1cn(CC(=O)N[C@H]2Cc3cccc(C(=O)O)c3OB2O)nn1 [Example 26, (R)-2-hydroxy-3-(2-(4-((methylamino)methyl)-1H-1,2,3-triazol-1-yl)acetamido)-3,4-dihydro-2H-benzo[e][1,2]oxaborinine-8-carboxylic acid]",< 100 nM,100 to 1000 nM,< 100 nM,< 100 nM,100 to 1000 nM,C (C represents an MIC of <1 μg/mL),C (C represents an MIC of <1 μg/mL),B (B represents an MIC between 1 and 16 μg/mL inclusive),B (B represents an MIC between 1 and 16 μg/mL inclusive),C (C represents an MIC of <1 μg/mL),B (B represents an MIC between 1 and 16 μg/mL inclusive)
"CCN(CC)Cc1cn(CC(=O)N[C@H]2Cc3cccc(C(=O)O)c3OB2O)nn1 [Example 27, (R)-3-(2-(4-((diethylamino)methyl)-1H-1,2,3-triazol-1-yl)acetamido)-2-hydroxy-3,4-dihydro-2H-benzo[e][1,2]oxaborinine-8-carboxylic acid]",< 100 nM,< 100 nM,100 to 1000 nM,< 100 nM,100 to 1000 nM,C (C represents an MIC of <1 μg/mL),C (C represents an MIC of <1 μg/mL),B (B represents an MIC between 1 and 16 μg/mL inclusive),B (B represents an MIC between 1 and 16 μg/mL inclusive),B (B represents an MIC between 1 and 16 μg/mL inclusive),B (B represents an MIC between 1 and 16 μg/mL inclusive)
"O=C(Cn1cc(-c2cccs2)nn1)N[C@H]1Cc2cccc(C(=O)O)c2OB1O [Example 28, (R)-2-hydroxy-3-(2-(4-(thiophen-2-yl)-1H-1,2,3-triazol-1-yl)acetamido)-3,4-dihydro-2H-benzo[e][1,2]oxaborinine-8-carboxylic acid]",< 100 nM,< 100 nM,100 to 1000 nM,< 100 nM,100 to 1000 nM,C (C represents an MIC of <1 μg/mL),C (C represents an MIC of <1 μg/mL),B (B represents an MIC between 1 and 16 μg/mL inclusive),B (B represents an MIC between 1 and 16 μg/mL inclusive),A (A represents an MIC>16 μg/mL),B (B represents an MIC between 1 and 16 μg/mL inclusive)
